According to ChEMBL document CHEMBL2380255, “Dual targeting of adenosine A(2A) receptors and monoamine oxidase B by 4H-3,1-benzothiazin-4-ones” (J Med Chem, 2013):
Active and inactive are the calls of the source. The rule behind the calls is not given here.

Columns and labels:
Adenosine receptor A2a [1] = molecular target: T1, Adenosine receptor A2a (Homo sapiens, UniProt P29274); test: Displacement of [3H]MSX2 from human recombinant adenosine A2A receptor expressed in CHO cells after 30 mins by liquid scintillation counting analysis; format: cell-based
T1 sequence (P29274 whole entry): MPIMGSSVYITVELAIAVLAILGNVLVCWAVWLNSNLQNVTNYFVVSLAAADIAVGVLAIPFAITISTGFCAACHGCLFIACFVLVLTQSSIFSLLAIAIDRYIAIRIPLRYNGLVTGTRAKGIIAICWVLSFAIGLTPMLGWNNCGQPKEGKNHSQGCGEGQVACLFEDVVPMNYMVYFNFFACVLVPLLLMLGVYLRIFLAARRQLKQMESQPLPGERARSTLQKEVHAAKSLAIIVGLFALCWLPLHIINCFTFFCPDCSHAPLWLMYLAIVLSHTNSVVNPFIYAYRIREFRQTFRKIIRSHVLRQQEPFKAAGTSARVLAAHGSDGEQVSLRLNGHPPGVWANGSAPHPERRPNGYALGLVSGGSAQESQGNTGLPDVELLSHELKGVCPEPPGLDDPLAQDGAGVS

Adenosine receptor A2b = molecular target: T2, Adenosine receptor A2b (Homo sapiens, UniProt P29275); test: Displacement of [3H]PSB-603 from human recombinant adenosine A2B receptor expressed in CHO cells after 75 mins by liquid scintillation counting analysis; format: cell-based
T2 sequence (P29275 whole entry): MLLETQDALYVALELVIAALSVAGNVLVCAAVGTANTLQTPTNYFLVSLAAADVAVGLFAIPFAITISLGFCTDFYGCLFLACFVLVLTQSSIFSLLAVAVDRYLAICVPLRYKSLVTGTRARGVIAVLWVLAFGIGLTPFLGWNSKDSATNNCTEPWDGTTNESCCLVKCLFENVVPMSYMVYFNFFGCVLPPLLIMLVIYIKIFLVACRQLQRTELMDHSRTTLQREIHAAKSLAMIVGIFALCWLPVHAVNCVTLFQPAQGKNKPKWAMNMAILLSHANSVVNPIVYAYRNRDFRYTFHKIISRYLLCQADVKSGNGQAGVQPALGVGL

[2] = molecular target: T3, Amine oxidase [flavin-containing] B (Homo sapiens, UniProt P27338); test: Inhibition of recombinant human MAO-B expressed in baculovirus-infected insect cells using p-tyramine as substrate incubated for 30 mins prior to substrate addition measured for 45 mins by amplex red reagent-based microplate fluorescence reader analysis; format: cell-based
T3 sequence (P27338 whole entry): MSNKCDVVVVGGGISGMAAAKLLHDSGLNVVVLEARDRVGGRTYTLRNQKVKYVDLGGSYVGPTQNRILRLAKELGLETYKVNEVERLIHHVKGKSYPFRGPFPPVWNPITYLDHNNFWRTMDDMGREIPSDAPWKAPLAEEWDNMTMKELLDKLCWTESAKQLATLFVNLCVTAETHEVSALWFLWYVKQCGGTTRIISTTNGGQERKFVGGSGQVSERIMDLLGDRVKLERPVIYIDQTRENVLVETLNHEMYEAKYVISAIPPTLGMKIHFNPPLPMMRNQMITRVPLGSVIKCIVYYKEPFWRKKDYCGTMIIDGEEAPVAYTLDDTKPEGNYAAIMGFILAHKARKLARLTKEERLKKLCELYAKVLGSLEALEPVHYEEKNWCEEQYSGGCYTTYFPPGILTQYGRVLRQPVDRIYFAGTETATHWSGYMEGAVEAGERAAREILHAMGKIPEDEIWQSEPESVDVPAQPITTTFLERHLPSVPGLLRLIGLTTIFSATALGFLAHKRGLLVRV

Adenosine receptor A1 [3] = molecular target: T4, Adenosine receptor A1 (Homo sapiens, UniProt P30542); test: Displacement of [3H]CCPA from human recombinant adenosine A1 receptor expressed in CHO cells after 90 mins by liquid scintillation counting analysis; format: cell-based
T4 sequence (P30542 whole entry): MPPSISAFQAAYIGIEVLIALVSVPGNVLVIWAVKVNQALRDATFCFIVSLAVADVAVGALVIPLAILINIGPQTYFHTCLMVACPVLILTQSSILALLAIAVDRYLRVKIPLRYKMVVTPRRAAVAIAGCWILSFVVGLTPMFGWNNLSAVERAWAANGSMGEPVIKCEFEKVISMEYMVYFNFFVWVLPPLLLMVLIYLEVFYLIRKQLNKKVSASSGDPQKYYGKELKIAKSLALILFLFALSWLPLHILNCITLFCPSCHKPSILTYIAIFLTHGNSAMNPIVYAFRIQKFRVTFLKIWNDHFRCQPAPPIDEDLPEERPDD

Homo sapiens [4] = species: Homo sapiens; test: Selectivity ratio of Ki for human recombinant adenosine A3 receptor to Ki for human recombinant adenosine A2A receptor
Adenosine receptor A2a [5] = molecular target: Adenosine receptor A2a (Rattus norvegicus, UniProt P30543); test: Displacement of [3H]MSX2 from adenosine A2A receptor in rat brain striatal membranes after 30 mins by liquid scintillation counting analysis; format: cell membranes, Membrane
Sequence of Adenosine receptor A2a (Rattus norvegicus, UniProt P30543) (P30543 whole entry): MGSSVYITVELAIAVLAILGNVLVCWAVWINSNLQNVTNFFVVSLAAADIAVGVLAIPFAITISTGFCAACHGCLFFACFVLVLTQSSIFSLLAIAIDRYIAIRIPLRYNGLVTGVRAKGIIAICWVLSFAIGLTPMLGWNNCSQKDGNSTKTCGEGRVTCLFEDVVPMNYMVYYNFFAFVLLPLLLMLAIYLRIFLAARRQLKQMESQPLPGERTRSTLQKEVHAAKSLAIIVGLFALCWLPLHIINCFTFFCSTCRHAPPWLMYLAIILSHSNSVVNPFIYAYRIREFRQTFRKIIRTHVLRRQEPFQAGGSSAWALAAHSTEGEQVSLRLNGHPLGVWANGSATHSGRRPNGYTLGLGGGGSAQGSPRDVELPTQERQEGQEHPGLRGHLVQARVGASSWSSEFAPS

[6] = Selectivity ratio of IC50 for MAO-B in mitochondria-enriched Sprague-Dawley rat liver fractions to IC50 for recombinant human MAO-B
[7] = molecular target: T5, Amine oxidase [flavin-containing] B (Rattus norvegicus, UniProt P19643); test: Inhibition of MAO-B in mitochondria-enriched Sprague-Dawley rat liver fractions using p-tyramine as substrate incubated for 30 mins prior to substrate addition measured for 45 mins by amplex red reagent-based microplate fluorescence reader analysis
T5 sequence (P19643 whole entry): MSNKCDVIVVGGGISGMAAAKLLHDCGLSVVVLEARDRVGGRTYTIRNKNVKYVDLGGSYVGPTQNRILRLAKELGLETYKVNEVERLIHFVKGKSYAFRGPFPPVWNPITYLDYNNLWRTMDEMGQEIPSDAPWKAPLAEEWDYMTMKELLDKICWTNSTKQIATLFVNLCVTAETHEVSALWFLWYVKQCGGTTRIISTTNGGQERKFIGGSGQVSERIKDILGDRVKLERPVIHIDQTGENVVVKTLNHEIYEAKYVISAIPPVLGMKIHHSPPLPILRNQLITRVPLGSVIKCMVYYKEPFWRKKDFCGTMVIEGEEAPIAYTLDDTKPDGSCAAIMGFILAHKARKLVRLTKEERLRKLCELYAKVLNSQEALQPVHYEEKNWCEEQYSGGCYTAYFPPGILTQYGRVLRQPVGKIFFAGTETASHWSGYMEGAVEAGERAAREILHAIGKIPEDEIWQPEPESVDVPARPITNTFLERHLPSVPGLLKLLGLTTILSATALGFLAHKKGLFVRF

Adenosine receptor A3 [8] = molecular target: T6, Adenosine receptor A3 (Homo sapiens, UniProt P0DMS8); test: Displacement of [3H]PSB-11 from human recombinant adenosine A3 receptor expressed in CHO cells after 60 mins by liquid scintillation counting analysis; format: cell-based
T6 sequence (P0DMS8 whole entry): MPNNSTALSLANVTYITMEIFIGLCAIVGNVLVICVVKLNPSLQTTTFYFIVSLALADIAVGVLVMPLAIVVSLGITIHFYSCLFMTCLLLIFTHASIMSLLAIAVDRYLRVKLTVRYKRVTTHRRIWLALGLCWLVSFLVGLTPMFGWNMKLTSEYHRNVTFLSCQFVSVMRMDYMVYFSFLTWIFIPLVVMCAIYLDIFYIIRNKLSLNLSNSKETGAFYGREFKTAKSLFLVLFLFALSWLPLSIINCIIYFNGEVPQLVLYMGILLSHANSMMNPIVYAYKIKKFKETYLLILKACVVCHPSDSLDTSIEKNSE

[9] = molecular target: T3, Amine oxidase [flavin-containing] B; test: Reversible inhibition of human MAO-B using p-tyramine as substrate at IC80 incubated for 22 mins followed by substrate addition measured for 5 hrs by fluorescence assay
Adenosine receptor A1 [10] = molecular target: T7, Adenosine receptor A1 (Rattus norvegicus, UniProt P25099); test: Displacement of [3H]CCPA from adenosine A1 receptor in rat brain cortical membranes after 90 mins by liquid scintillation counting analysis; format: cell membranes, Membrane
T7 sequence (P25099 whole entry): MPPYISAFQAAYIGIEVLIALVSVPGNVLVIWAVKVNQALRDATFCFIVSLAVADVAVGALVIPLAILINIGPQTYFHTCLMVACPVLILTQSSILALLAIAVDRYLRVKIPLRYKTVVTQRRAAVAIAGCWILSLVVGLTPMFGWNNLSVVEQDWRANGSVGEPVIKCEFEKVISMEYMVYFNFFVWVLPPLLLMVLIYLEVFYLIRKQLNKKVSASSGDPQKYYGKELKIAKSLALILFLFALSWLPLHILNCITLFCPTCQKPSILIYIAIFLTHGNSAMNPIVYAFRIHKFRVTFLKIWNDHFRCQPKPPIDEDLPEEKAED

Homo sapiens [11] = species: Homo sapiens; test: Selectivity ratio of Ki for human recombinant adenosine A2B receptor to Ki for human recombinant adenosine A2A receptor
Homo sapiens [12] = species: Homo sapiens; test: Selectivity ratio of Ki for human recombinant adenosine A1 receptor to Ki for human recombinant adenosine A2A receptor
[13] = Selectivity ratio of Ki for adenosine A2A receptor in rat brain striatal membranes to Ki for human recombinant adenosine A2A receptor; format: cell membranes; details: Membrane
[14] = Selectivity ratio of Ki for human recombinant adenosine A1 receptor to Ki for adenosine A1 receptor in rat brain cortical membranes; format: cell membranes; details: Membrane
[15] = Stability of the compound in DMSO at 1 mg/ml under daylight condition at 20 degC after 24 hrs by LC-MS analysis; format: physicochemical
[16] = molecular target: T3, Amine oxidase [flavin-containing] B; test: Ratio of selegiline IC50 to compound IC50 for recombinant human MAO-B
[17] = Stability of the compound in DMSO at 1 mg/ml under daylight condition at 20 degC after 7 days by LC-MS analysis; format: physicochemical; details: 168 h
Adenosine receptor A2a [18] = molecular target: T1, Adenosine receptor A2a; test: Antagonist activity at human adenosine A2A receptor expressed in CHO cells assessed as decrease in NECA-induced cAMP accumulation up to 20 uM incubated for 10 mins followed by NECA induction for 15 mins measured after 60 mins by liquid scintillation counting analysis in presence of [3H]cAMP; format: functional, cell-based
[19] = molecular target: T3, Amine oxidase [flavin-containing] B; test: Competitive inhibition of human MAO-B using p-tyramine as substrate at 50 to 300 nM using p-tyramine as substrate incubated for 30 mins prior to substrate addition measured for 45 mins by Lineweaver-burk plot analysis; details: 0.75 h
Adenosine receptor A2a [20] = molecular target: T1, Adenosine receptor A2a; test: Antagonist activity at human adenosine A2A receptor expressed in CHO cells assessed as decrease in cAMP accumulation up to 20 uM preincubated for 10 mins measured after 60 mins by liquid scintillation counting analysis in presence of [3H]cAMP; format: functional, cell-based
Adenosine receptor A3 [21] = molecular target: T6, Adenosine receptor A3; test: Displacement of [3H]PSB-11 from human recombinant adenosine A3 receptor expressed in CHO cells; format: cell-based
Adenosine receptor A1 [22] = molecular target: T4, Adenosine receptor A1; test: Displacement of [3H]CCPA from human recombinant adenosine A1 receptor expressed in CHO cells

Row | Ki (Adenosine receptor A2a [1]) [nM] | Ki (Adenosine receptor A2b) [nM] | IC50 [2] [nM] | Ki (Adenosine receptor A1 [3]) [nM] | Ratio Ki (Homo sapiens [4]) | Ki (Adenosine receptor A2a [5]) [nM] | Ratio IC50 [6] | IC50 [7] [nM] | Ki (Adenosine receptor A3 [8]) [nM] | inhibition (INH) [9] | Ki (Adenosine receptor A1 [10]) [nM] | Ratio Ki (Homo sapiens [11]) | Ratio Ki (Homo sapiens [12]) | Compound | further results
1 | 64.9 | 225 | 95.3 | 1370 | 3 | 294 | 1.4 | 621 | 173 | Active | 367 | 4 | 21 | COc1cccc(CCC(=O)Nc2nc3ccccc3c(=O)s2)c1 | Ratio Ki [13]: > 4
2 | 91.8 | ≥ 1000 | 238 | 500 | – | 317 | 1.4 | 2020 | 115 | – | 11.2 | – | – | COc1cccc(/C=C/CC(=O)Nc2nc3ccccc3c(=O)s2)c1 | Ratio Ki [14]: < 45
3 | 82.5 | 361 | 69.7 | 364 | 12 | 693 | 1.4 | 291 | > 1000 | Active | 35.2 | 4 | 4 | O=C(CCCc1ccccc1)Nc1nc2sccc2c(=O)s1 | –
4 | 80.9 | 365 | 17.6 | 1050 | 5 | 103 | 1.4 | 42.7 | 390 | Active | 422 | 5 | 13 | O=C(CCc1ccccc1)Nc1nc2ccccc2c(=O)s1 | –
5 | – | – | – | – | – | – | – | 25.8 | – | Active | – | – | – | C[C@H](NCc1ccc(OCc2cccc(F)c2)cc1)C(N)=O [SAFINAMIDE] | –
6 | – | > 1000 | 1.63 | – | – | > 10000 | 400 | 661 | > 1000 | – | > 10000 | – | – | O=C(COc1cccc(Cl)c1)Nc1nc2ccccc2c(=O)s1 | Ratio IC50 [16]: 4
7 | 39.5 | > 1000 | 34.9 | 2500 | > 25 | 423 | 1.4 | 186 | > 1000 | Active | 229 | > 25 | 63 | O=C(CCCc1ccccc1)Nc1nc2ccccc2c(=O)s1 | Stability [17]: Stable; Activity (Adenosine receptor A2a [18]): Active; inhibition (INH) [19]: Active; Activity (Adenosine receptor A2a [20]): Active
8 | – | – | – | – | – | – | – | – | – | – | – | – | – | CCn1c(=O)c2c(nc(/C=C/c3ccc(OC)c(OC)c3)n2C)n(CC)c1=O [ISTRADEFYLLINE] | Ki (Adenosine receptor A3 [21]): > 3000 nM; Ki (Adenosine receptor A1 [22]): 2830 nM
9 | – | > 1000 | > 1000 | 562 | – | ≥ 10000 | 1.4 | 840 | > 1000 | – | 11.4 | – | – | O=C(C/C=C/c1cccc(Cl)c1)Nc1nc2ccccc2c(=O)s1 | Ratio Ki [14]: < 45
10 | 44.3 | > 1000 | > 10000 | 4370 | > 22 | 488 | 1.4 | – | > 1000 | – | – | > 22 | 100 | O=C(Nc1nc2ccccc2c(=O)s1)c1ccc(C(=O)N2CCN(Cc3ccc(Cl)cc3)CC2)cc1 | –

Row | Compound | Ki (Adenosine receptor A2a [1]) [nM] | Ki (Adenosine receptor A2b) [nM] | IC50 [2] [nM] | Ki (Adenosine receptor A1 [3]) [nM] | Ratio Ki (Homo sapiens [4]) | Ki (Adenosine receptor A2a [5]) [nM] | Ratio IC50 [6] | IC50 [7] [nM] | Ki (Adenosine receptor A3 [8]) [nM] | inhibition (INH) [9] | Ki (Adenosine receptor A1 [10]) [nM] | Ratio Ki (Homo sapiens [11]) | Ratio Ki (Homo sapiens [12]) | further results
11 | Cn1c(=O)c2c(nc(/C=C/c3cccc(Cl)c3)n2C)n(C)c1=O | – | – | – | > 10000 | – | – | – | 38.5 | > 1000 | – | – | – | – | Stability [15]: Unstable
